# In ChEMBL document CHEMBL1201862, “PubChem BioAssay data set” (2004):
#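 48-hour exposure; five concentrations; linearly interpolated endpoints. GI50 = concentration required for 50% inhibition of growth.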 Active and inactive are the calls of the source. Cut-off read from the data, not from the text of the source: active = GI50 up to about 1.1 µM and inactive = higher.
# What was measured:
# Experiment in all cases: inhibition of tumour cell growth, NCI panel, 48 h
# A498 = system: A498
# ACHN = system: ACHN
# HCC 2998 = system: HCC 2998
# HOP-62 = system: HOP-62
# IGROV-1 = system: IGROV-1
# LOX IMVI = system: LOX IMVI
# M14 = system: M14
# MOLT-4 = system: MOLT-4
# Malme-3M = system: Malme-3M
# NCI-H226 = system: NCI-H226
# NCI-H460 = system: NCI-H460
# OVCAR-8 = system: OVCAR-8
# SF-539 = system: SF-539
# SK-OV-3 = system: SK-OV-3
# SN12C = system: SN12C
# SNB-75 = system: SNB-75
# SW-620 = system: SW-620
# UACC-257 = system: UACC-257
# MCF7 = system: MCF7
SMILES,GI50 (A498),GI50 (ACHN),GI50 (HCC 2998),GI50 (HOP-62),GI50 (IGROV-1),GI50 (LOX IMVI),GI50 (M14),GI50 (MOLT-4),GI50 (Malme-3M),GI50 (NCI-H226),GI50 (NCI-H460),GI50 (OVCAR-8),GI50 (SF-539),GI50 (SK-OV-3),GI50 (SN12C),GI50 (SNB-75),GI50 (SW-620),GI50 (UACC-257),GI50 (MCF7)
Cc1cccc(C(C)C)c1N1C(=O)C(=O)C(c2nc3ccccc3o2)C(=O)C1=O,> 100 µM (inactive),> 100 µM (inactive),95.7 µM (inactive),> 100 µM (inactive),> 100 µM (inactive),41.7 µM (inactive),> 100 µM (inactive),24.7 µM (inactive),> 100 µM (inactive),> 100 µM (inactive),76.7 µM (inactive),> 100 µM (inactive),> 100 µM (inactive),> 100 µM (inactive),> 100 µM (inactive),26.9 µM (inactive),56.8 µM (inactive),51.9 µM (inactive),–
Cc1nc2ccncc2[nH]1,> 100 µM (inactive),> 100 µM (inactive),> 100 µM (inactive),> 100 µM (inactive),> 100 µM (inactive),> 100 µM (inactive),> 100 µM (inactive),> 100 µM (inactive),> 100 µM (inactive),> 100 µM (inactive),> 100 µM (inactive),> 100 µM (inactive),> 100 µM (inactive),–,> 100 µM (inactive),24.8 µM (inactive),> 100 µM (inactive),> 100 µM (inactive),–
COCP1(=S)OC(C)CCN1C(C)C (configuration not stated),–,> 100 µM (inactive),> 100 µM (inactive),> 100 µM (inactive),> 100 µM (inactive),> 100 µM (inactive),> 100 µM (inactive),–,> 100 µM (inactive),> 100 µM (inactive),> 100 µM (inactive),> 100 µM (inactive),> 100 µM (inactive),> 100 µM (inactive),–,–,> 100 µM (inactive),> 100 µM (inactive),> 100 µM (inactive)
CCN(CC)c1ccc2cc3ccc(N(CC)CC)cc3[o+]c2c1,14.6 µM (inactive),1.26 µM (inactive),4.39 µM (inactive),3.31 µM (inactive),2.08 µM (inactive),0.6 µM (active),1.95 µM (inactive),0.127 µM (active),1.2 µM (inactive),5.62 µM (inactive),1.78 µM (inactive),0.407 µM (active),2.02 µM (inactive),6.52 µM (inactive),0.832 µM (active),5.37 µM (inactive),0.237 µM (active),2.59 µM (inactive),–
COc1ccc(/C=C(/c2ccc(OC)cc2)c2c(Cl)cc(Cl)c(/C(=C\c3ccc(OC)cc3)c3ccc(OC)cc3)c2/N=N/c2ccccc2)cc1,98.2 µM (inactive),72.4 µM (inactive),> 100 µM (inactive),> 100 µM (inactive),> 100 µM (inactive),> 100 µM (inactive),> 100 µM (inactive),88.7 µM (inactive),> 100 µM (inactive),–,> 100 µM (inactive),> 100 µM (inactive),34.4 µM (inactive),> 100 µM (inactive),> 100 µM (inactive),> 100 µM (inactive),> 100 µM (inactive),39.7 µM (inactive),62.1 µM (inactive)
NC(CCCC(N)P(=O)(O)O)P(=O)(O)O (configuration not stated),> 100 µM (inactive),> 100 µM (inactive),> 100 µM (inactive),–,> 100 µM (inactive),> 100 µM (inactive),> 100 µM (inactive),> 100 µM (inactive),> 100 µM (inactive),> 100 µM (inactive),> 100 µM (inactive),> 100 µM (inactive),> 100 µM (inactive),> 100 µM (inactive),> 100 µM (inactive),> 100 µM (inactive),> 100 µM (inactive),> 100 µM (inactive),–
CC1C[C@@H]2C(=O)NC(=O)[C@@H]2c2c1c1ccccc1n2C (some centres not stated),> 100 µM (inactive),–,> 100 µM (inactive),> 100 µM (inactive),> 100 µM (inactive),> 100 µM (inactive),> 100 µM (inactive),> 100 µM (inactive),> 100 µM (inactive),> 100 µM (inactive),> 100 µM (inactive),> 100 µM (inactive),> 100 µM (inactive),> 100 µM (inactive),> 100 µM (inactive),> 100 µM (inactive),> 100 µM (inactive),> 100 µM (inactive),–
O=C(CC(C(=O)c1cccs1)c1ccsc1)c1ccc(Cl)s1 (configuration not stated),> 100 µM (inactive),96.2 µM (inactive),> 100 µM (inactive),> 100 µM (inactive),> 100 µM (inactive),> 100 µM (inactive),85.5 µM (inactive),47.3 µM (inactive),> 100 µM (inactive),> 100 µM (inactive),> 100 µM (inactive),> 100 µM (inactive),> 100 µM (inactive),> 100 µM (inactive),> 100 µM (inactive),> 100 µM (inactive),> 100 µM (inactive),67.9 µM (inactive),97.1 µM (inactive)
COC(=O)C(Cc1nc2ccc(Cl)cc2nc1O)/C(=N/NC(N)=O)C(=O)Nc1ccc(Cl)cc1 (configuration not stated),> 100 µM (inactive),> 100 µM (inactive),> 100 µM (inactive),> 100 µM (inactive),> 100 µM (inactive),> 100 µM (inactive),> 100 µM (inactive),> 100 µM (inactive),> 100 µM (inactive),> 100 µM (inactive),> 100 µM (inactive),> 100 µM (inactive),> 100 µM (inactive),> 100 µM (inactive),> 100 µM (inactive),> 100 µM (inactive),> 100 µM (inactive),> 100 µM (inactive),–
NC(=S)N/N=C1\CCCC1C(O)(C(F)(F)Cl)C(F)(F)Cl (configuration not stated),> 10 µM (inactive),> 10 µM (inactive),> 10 µM (inactive),> 10 µM (inactive),> 10 µM (inactive),> 10 µM (inactive),> 10 µM (inactive),> 10 µM (inactive),> 10 µM (inactive),> 10 µM (inactive),> 10 µM (inactive),> 10 µM (inactive),> 10 µM (inactive),> 10 µM (inactive),> 10 µM (inactive),> 10 µM (inactive),> 10 µM (inactive),> 10 µM (inactive),> 10 µM (inactive)
CN1c2ccccc2N(C)C2C1N(C)c1ccccc1N2C (configuration not stated),31.6 µM (inactive),40.1 µM (inactive),9.73 µM (inactive),34.3 µM (inactive),20.7 µM (inactive),5.25 µM (inactive),18.2 µM (inactive),2.86 µM (inactive),16.6 µM (inactive),23.2 µM (inactive),20.8 µM (inactive),18.6 µM (inactive),15.3 µM (inactive),–,20 µM (inactive),6.9 µM (inactive),7.85 µM (inactive),6.67 µM (inactive),–
O=c1nc(NC(c2ccccc2)(c2ccccc2)c2ccccc2)ccn1CCO,> 100 µM (inactive),48.5 µM (inactive),> 100 µM (inactive),> 100 µM (inactive),> 100 µM (inactive),75.9 µM (inactive),–,29.9 µM (inactive),> 100 µM (inactive),> 100 µM (inactive),57 µM (inactive),> 100 µM (inactive),> 100 µM (inactive),–,88.7 µM (inactive),40.8 µM (inactive),> 100 µM (inactive),> 100 µM (inactive),–
C=C1CCC[C@@H](C)C(O)[C@@H]2OC(=O)C(=C)[C@@H]2C[C@@H](OC(C)=O)[C@@]2(C)CC[C@@H]1O2 (some centres not stated),9.84 µM (inactive),6.89 µM (inactive),7.89 µM (inactive),8.09 µM (inactive),8.15 µM (inactive),–,6.97 µM (inactive),4.84 µM (inactive),–,8.49 µM (inactive),–,7.19 µM (inactive),7.98 µM (inactive),10.8 µM (inactive),8.51 µM (inactive),0.91 µM (active),8.3 µM (inactive),8.18 µM (inactive),5.55 µM (inactive)
COC(=O)CCC(NC(=S)N/N=C/c1ccccn1)C(=O)OC (configuration not stated),> 100 µM (inactive),> 100 µM (inactive),> 100 µM (inactive),> 100 µM (inactive),> 100 µM (inactive),> 100 µM (inactive),> 100 µM (inactive),> 100 µM (inactive),> 100 µM (inactive),> 100 µM (inactive),> 100 µM (inactive),> 100 µM (inactive),> 100 µM (inactive),> 100 µM (inactive),> 100 µM (inactive),> 100 µM (inactive),> 100 µM (inactive),> 100 µM (inactive),–
CN1N=C2c3ccccc3CC[C@H]2C1c1ccccc1 (some centres not stated),72.1 µM (inactive),44.3 µM (inactive),85.7 µM (inactive),47.9 µM (inactive),85.5 µM (inactive),47.1 µM (inactive),56.5 µM (inactive),> 100 µM (inactive),25.5 µM (inactive),27.9 µM (inactive),28.9 µM (inactive),41.1 µM (inactive),86.5 µM (inactive),2.56 µM (inactive),42.1 µM (inactive),–,78.2 µM (inactive),22.3 µM (inactive),–
COc1cc2c(cc1O)[C@H](C)C(c1ccc(Cl)cc1)O2 (some centres not stated),11.9 µM (inactive),14.1 µM (inactive),18.5 µM (inactive),22.6 µM (inactive),22.5 µM (inactive),16 µM (inactive),22.2 µM (inactive),15.3 µM (inactive),24.6 µM (inactive),24.9 µM (inactive),17.9 µM (inactive),> 10 µM (inactive),57.9 µM (inactive),23.3 µM (inactive),–,2.72 µM (inactive),17.4 µM (inactive),19.8 µM (inactive),–
